Assay results: US8901313B2, “6,5-heterocyclic propargylic alcohol compounds and uses therefor” (Genentech, Inc., priority 2011, dated 2014)
Like-named read-outs stand apart in the source and are kept apart here.

How the values were obtained:
[1] = target: T1, nuclear factor-kappa B (NF-kB)-inducing kinase (NIK) (Homo sapiens, UniProt Q99558); test: NIK Enzyme Inhibition Assay (Transcreener ADP assay); format: biochemical
T1 construct: made in house; host or cells: baculovirus-infected insect cells

[2] = tested on: human embryonic kidney 293 cells; test: 293-NIK TK Renilla Luciferase reporter (general measure of cell viability); format: cell-based
Description: (1) The first assay was used to profile whether a test compound can inhibit the NF-kB signally through NIK inhibition without affecting cell viability. In this assay, human embryonic kidney 293 cells was stably transfected with a tetracycline-inducible NIK DNA construct containing a cytomegalovirus promoter plus two reporter DNA constructs. One reporter encoded firefly luciferase under the control of three repeats of an NF-kB response element from the ELAM-1 gene and reflects the level of NIK activity in the cells, whereas the other reporter constitutively expressed Renilla luciferase under the control of the herpes simplex virus thymidine kinase promoter and served as a general measure of cell viability. Cells were incubated with different concentrations of compounds (0.2% DMSO final) in medium containing 1 ug/mL doxycycline and 10% tet-system approved fetal bovine serum (Clontech) for 24 hours, after which the reporters' signals were detected using the Dual Glo luciferase detection system (Promega) according to the vendor's protocol. The compounds listed in Table 1 have the corresponding inhibitory value (IC50 in micromolar) for 293-NIK NF-kB-Luciferase activity (values for compounds are presented in the same order as found in Table 1): na, 0.059, na, na, na, 0.105, 0.027, na, 20, 1.2, na, 1.8, 0.0231, 0.879, 0.0361, 0.582, na, 0.142, na, 0.403, 0.059, 0.0331, na, na, 0.0573, 1.5, na, na, 0.0722, na, na, 0.589, 12.7, 3.7, 14.9, na, 0.707, 1, 0.0311, 0.332, 0.309, 0.0142, 0.051, 2.8, 0.129, na, na, 1.5, na, na, na, 1.3, 0.062, 20, 0.31, 0.104, 0.091, 0.037, 0.085, 0.279, na, 0.305, 0.064, 0.332, 0.133, 0.168, 0.217, 0.553, na and na.
The compounds in listed in Table 1 have the corresponding inhibitory value (IC50 in micromolar) for 293-NIK TK Renilla Luciferase activity: (values for compounds are presented in the same order as found in Table 1): 6.4, 3.6, 20, na, 1.6, 9.3, 18.5, na, na, 2.6, na, na, na, na, na, na, na, na, na, na, na, na, na, na, na, na, na, na, na, na, na, na, na, na, na, na, na, na, na, na, na, na, na, na, na, na, na, >20, na, na, na, 20, >20, 17, 1.3, 15.6, 0.967, 2.7, 11.2, 5.1, na, 20, 20, 20, 20, 20, 17.6, 20, na and na.

[3] = tested on: REL-A (p65) nuclear translocation in HeLa cells; test: NIK RelA Translocation Assay (classical NF-kB signaling); format: cell-based; conditions: Homo sapiens
Method: (2) A second set of cell assay was used to define the selectivity of NIK inhibitors toward inhibition of classical vs. non-classical NF-kB signaling and rely on quantification of the nuclear translocation of p52 (NF-kB2) and REL-A (p65) using high content cellular imaging. For the p52 (non-classical NF-kB signaling) nuclear translocation assay, HeLa cells were treated with different concentrations of compounds (0.2% DMSO final) in medium containing 10% fetal bovine serum and then stimulated with 100 ng/mL of an anti-lymphotoxin beta receptor antibody (R&D Systems) for 5 hours. In the REL-A nuclear translocation assay, HeLa cells were incubated with compounds (0.2% DMSO final) for 4.5 hours in medium containing 10% fetal bovine serum before stimulating them with 10 ng/mL tumor necrosis factor (TNF)-α (R&D Systems) for 30 minutes. Cells were fixed with 4% paraformaldehyde, permeabilized by adding 0.1% Triton X-100 in phosphate buffered saline, and then incubated with either 2 ug/mL anti-p52 antibody (Millipore) or 400 ng/mL anti-REL-A (p65) antibody (Santa Cruz Biotechnology). Finally, the cells were incubated with an Alexa488-labeled secondary antibody (Invitrogen) and DRAQ5 DNA stain (Biostatus). Imaging was carried out using an Opera reader (Perkin Elmer) and data are analyzed with the aid of Acapella software (Perkin Elmer). The p52 or REL-A translocation into the nucleus was quantified by the ratio of the nuclear to cytoplasmic signal intensity. The concentration of inhibitor required for 50% inhibition (IC50 values) in these cell assays were derived from the plots of signal vs. inhibitor concentration. The compounds in listed in Table 1 have the corresponding inhibitory value (IC50 in micromolar) for NIK p52 Translocation Assay (values for compounds are presented in the same order as found in Table 1, and “na” means the data for this assay is to be determined): 0.326, 0.33, na, na, na, 0.218, 0.07, na, na, na, 0.129, 7.6, 0.077, 3.4, na, 0.518, na, 0.059, 0.514, 0.127, na, na, 0.010, na, na, 0.313, 0.275, na, 0.0727, na, na, na, na, na, na, 0.194, na, 6.4, 0.22, 0.346, na, na, na and na, na, na, na, na, na, 0.447, na, 0.089, 0.479, 0.489, 0.243, 0.747, 1, na, 1.9, 0.552, 2.1, na. na, na, na, na and na.
The compounds in listed in Table 1 has the corresponding inhibitory value (IC50 in micromolar) for NIK RelA Translocation Assay (values for compounds are presented in the same order as found in Table 1): 0.326, 0.33, na, na, na, 0.218, 0.07, na, na, na, na, na, 0.129, 7.6, 0.077, 3.4, na, 0.518, na, 0.059, 0.514, 0.127, na, na, 0.010, na, na, 0.313, 0.275, na, na, 0.0727, na, na, na, na, na, na, 0.194, na, 6.4, 0.22, 0.346, na, na, na, na, na, na, na, na, na, 0.447, na, 0.089, 0.479, 0.489, 0.243, 0.747, 1, na, 1.9, 0.552, 2.1, na, na, na, na, na and na.

[4] = tested on: p52 (NF-kB2) nuclear translocation in HeLa cells; test: NIK p52 Translocation Assay (non-classical NF-kB signaling); format: cell-based; conditions: Homo sapiens
Method in brief: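 HeLa cells in 10% FBS medium were exposed to compound (0.2% DMSO final) and stimulated with 100 ng/mL anti-lymphotoxin β receptor antibody for 5 h. Fixed cells were immunostained for p52 with DRAQ5 counterstain and imaged by high-content imaging. IC50 from nuclear/cytoplasmic p52 signal ratio vs concentration.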

[5] = tested on: NF-kB signaling through NIK in human embryonic kidney 293 cells; test: 293-NIK NF-kB-Luciferase reporter assay; format: cell-based
Method in brief: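 HEK293 cells stably carrying tetracycline-inducible NIK plus NF-kB (ELAM-1 element) firefly luciferase and constitutive TK-Renilla viability reporter. Compounds (0.2% DMSO) incubated 24 h with 1 ug/mL doxycycline; Dual Glo luminescence read, IC50 from firefly signal.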

[6] = comparative data, Tables 16A-16D, read-out: NIK ADP (Ki)
[7] = HEK293, comparative data, Tables 16A-16D, read-out: 293-NIK TK Renilla Luciferase (IC50)
[8] = HeLa, comparative data, Tables 16A-16D, read-out: NIK RelA Translocation (IC50)
[9] = HeLa, comparative data, Tables 16A-16D, read-out: NIK p52 Translocation (IC50)
[10] = HEK293, comparative data, Tables 16A-16D, read-out: 293-NIK NF-kB-Luciferase (IC50)
[11] = purified NIK 0.2-1 nM, 10 uM ATP, fluorescence polarization, Morrison's quadratic equation, read-out: inhibitory value (Ki) for NIK
[12] = HEK293, 293 cells, constitutive Renilla luciferase, 24 hours, read-out: inhibitory value (IC50) for 293-NIK TK Renilla Luciferase activity
[13] = HeLa cells, compounds 4.5 hours, 10 ng/mL TNF-α 30 minutes, read-out: inhibitory value (IC50) for NIK RelA Translocation Assay
[14] = HeLa cells, 100 ng/mL anti-lymphotoxin beta receptor antibody, 5 hours, read-out: inhibitory value (IC50) for NIK p52 Translocation Assay
[15] = HEK293, 293 cells with tetracycline-inducible NIK, 1 ug/mL doxycycline, 24 hours, read-out: inhibitory value (IC50) for 293-NIK NF-kB-Luciferase activity

T1 sequence (Q99558 whole entry): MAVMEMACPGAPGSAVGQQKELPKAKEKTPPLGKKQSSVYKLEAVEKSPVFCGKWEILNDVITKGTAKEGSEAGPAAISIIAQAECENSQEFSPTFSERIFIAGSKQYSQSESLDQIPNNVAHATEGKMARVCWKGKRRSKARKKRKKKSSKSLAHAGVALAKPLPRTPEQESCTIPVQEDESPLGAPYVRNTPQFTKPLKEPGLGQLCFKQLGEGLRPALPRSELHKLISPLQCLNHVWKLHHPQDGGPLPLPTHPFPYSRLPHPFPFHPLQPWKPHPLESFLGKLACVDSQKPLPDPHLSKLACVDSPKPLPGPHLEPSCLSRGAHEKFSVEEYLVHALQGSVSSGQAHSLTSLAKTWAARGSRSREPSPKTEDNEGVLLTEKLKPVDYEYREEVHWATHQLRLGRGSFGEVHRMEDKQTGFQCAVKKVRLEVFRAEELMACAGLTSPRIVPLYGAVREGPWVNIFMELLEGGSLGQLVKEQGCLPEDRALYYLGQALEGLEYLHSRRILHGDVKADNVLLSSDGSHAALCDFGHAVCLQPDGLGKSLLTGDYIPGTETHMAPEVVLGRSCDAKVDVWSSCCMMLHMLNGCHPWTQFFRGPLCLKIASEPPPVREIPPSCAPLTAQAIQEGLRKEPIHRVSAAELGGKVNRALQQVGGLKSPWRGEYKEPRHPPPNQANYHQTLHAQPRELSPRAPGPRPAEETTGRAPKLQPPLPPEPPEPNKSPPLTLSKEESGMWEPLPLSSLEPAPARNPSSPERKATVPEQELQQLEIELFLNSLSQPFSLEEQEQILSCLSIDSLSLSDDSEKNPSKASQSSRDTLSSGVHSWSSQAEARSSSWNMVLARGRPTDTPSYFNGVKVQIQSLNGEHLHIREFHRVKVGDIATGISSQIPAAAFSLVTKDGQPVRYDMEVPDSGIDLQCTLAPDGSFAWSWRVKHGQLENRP

Row | SMILES | Ki [1, 6] [nM] | IC50 [3, 8] [nM] | IC50 [4, 9] [nM] | Ki [1, 11] [nM] | IC50 [3, 13] [nM] | IC50 [2, 7] [nM] | IC50 [5, 10] [nM] | IC50 [2, 12] [nM] | IC50 [4, 14] [nM] | IC50 [5, 15] [nM]
1 | CN(C)C(=O)c1nn(-c2ccnc(N)n2)c2cc(C#CC(C)(O)c3ncco3)ccc12 (stereo not shown) [1-(2-aminopyrimidin-4-yl)-6-(3-hydroxy-3-(oxazol-2-yl)but-1-ynyl)-N,N-dimethyl-1H-indazole-3-carboxamide] | 0.2 | > 20000 | 346 | – | – | 583 | 51 | – | – | –
2 | CC(O)(C#Cc1ccc2ncn(-c3ccnc(N)n3)c2c1)c1nccs1 (stereo not shown) [4-(1-(2-aminopyrimidin-4-yl)-1H-benzo[d]imidazol-6-yl)-2-(thiazol-2-yl)but-3-yn-2-ol] | 0.3 | > 20000 | 70 | – | – | 4900 | 27 | – | – | –
3 | CC(O)(C#Cc1ccc2cnn(-c3ccnc(N)n3)c2c1)c1ncco1 (stereo not shown) [4-(1-(2-aminopyrimidin-4-yl)-1H-indazol-6-yl)-2-(oxazol-2-yl)but-3-yn-2-ol] | 0.3 | > 20000 | 77 | – | – | 514 | 36 | – | – | –
4 | Cc1nn(-c2ccnc(N)n2)c2cc(C#CC(C)(O)c3nccs3)ccc12 (stereo not shown) [4-(1-(2-aminopyrimidin-4-yl)-3-methyl-1H-indazol-6-yl)-2-(thiazol-2-yl)but-3-yn-2-ol] | 0.1 | > 20000 | 222 | – | – | 1200 | 11 | – | – | –
5 | CC(O)(C#Cc1ccc2c(c1)N(c1ccnc(N)n1)CC2)c1nccs1 (stereo not shown) [4-(1-(2-aminopyrimidin-4-yl)indolin-6-yl)-2-(thiazol-2-yl)but-3-yn-2-ol, reference compound] | 2.7 | > 20000 | 862 | – | – | 3900 | 126 | – | – | –
6 | CC(O)(C#Cc1ccc2cnn(-c3nc(N)ncc3Cl)c2c1)c1nccs1 (stereo not shown) [Example T1-6, 4-(1-(2-amino-5-chloro-pyrimidin-4-yl)-1H-indazol-6-yl)-2-(thiazol-2-yl)but-3-yn-2-ol] | – | – | – | 0.14 | 218 | – | – | 9300 | 218 | 105
7 | CC(O)(C#Cc1ccc2ncn(-c3ccnc(N)n3)c2c1)c1nccs1 (stereo not shown) [Example T1-7, 4-(1-(2-aminopyrimidin-4-yl)-1H-benzo[d]imidazol-6-yl)-2-(thiazol-2-yl)but-3-yn-2-ol] | – | – | – | 0.28 | 70 | – | – | 18500 | 70 | 27

Further lines, with some results ahead:

Row | Ki [1, 6] [nM] | IC50 [3, 8] [nM] | IC50 [4, 9] [nM] | Ki [1, 11] [nM] | IC50 [3, 13] [nM] | SMILES | IC50 [2, 7] [nM] | IC50 [5, 10] [nM] | IC50 [2, 12] [nM] | IC50 [4, 14] [nM] | IC50 [5, 15] [nM]
8 | – | – | – | 0.4 | 447 | Cc1nc2ccc(C#CC(C)(O)c3nccs3)cc2n1-c1ncnc(N)n1 (stereo not shown) [Example T1-53, 4-(1-(4-amino-1,3,5-triazin-2-yl)-2-methyl-1H-benzo[d]imidazol-6-yl)-2-(thiazol-2-yl)but-3-yn-2-ol] | – | – | > 20000 | 479 | 62
9 | – | – | – | 0.2 | 89 | Cc1nn(-c2ccnc(N)n2)c2cc(C#C[C@@](C)(O)c3nccs3)c(F)cc12 [Example T1-55, (R)-4-(1-(2-aminopyrimidin-4-yl)-5-fluoro-3-methyl-1H-indazol-6-yl)-2-(thiazol-2-yl) but-3-yn-2-ol] | – | – | 1300 | 243 | 310
10 | – | – | – | 1.6 | 479 | Cc1cnc(C(C)(O)C#Cc2ccc3c(C)nn(-c4ccnc(N)n4)c3c2)s1 (stereo not shown) [Example T1-56, 4-(1-(2-aminopyrimidin-4-yl)-3-methyl-1H-indazol-6-yl)-2-(5-methylthiazol-2-yl)but-3-yn-2-ol] | – | – | 15600 | 747 | 104
11 | – | – | – | 2 | 489 | Cc1nc(C(C)(O)C#Cc2ccc3c(C)nn(-c4ccnc(N)n4)c3c2)no1 (stereo not shown) [Example T1-57, 4-(1-(2-aminopyrimidin-4-yl)-3-methyl-1H-indazol-6-yl)-2-(5-methyl-1,2,4-oxadiazol-3-yl)but-3-yn-2-ol] | – | – | 967 | 1000 | 91
